Experimental data as given in patent publication US6875884B1, “Urea derivatives as inhibitors for CCR-3 receptor” (Kirin Beer Kabushiki Kaisha, priority 1999, dated 2005).

Legend:
[1] = test system: collagen-induced arthritis; experiment: Type II collagen-induced arthritis in mice, clinical score; assay type: in vivo; conditions: male DBA/1 mice, 20 mg/kg per day subcutaneously starting at 2nd immunization, versus control vehicle
CCR-3 = biological target: T1, CCR-3 (Homo sapiens, UniProt P51677); experiment: Inhibition of eotaxin-induced intracellular calcium mobilization in CCR-3 transfectant cells (CCR3/HEK293); assay type: cell-based; set-up: expressed in transfected cells; conditions: compound 6.25 μg/ml, eotaxin 10 nM
T1 sequence (P51677 1-355): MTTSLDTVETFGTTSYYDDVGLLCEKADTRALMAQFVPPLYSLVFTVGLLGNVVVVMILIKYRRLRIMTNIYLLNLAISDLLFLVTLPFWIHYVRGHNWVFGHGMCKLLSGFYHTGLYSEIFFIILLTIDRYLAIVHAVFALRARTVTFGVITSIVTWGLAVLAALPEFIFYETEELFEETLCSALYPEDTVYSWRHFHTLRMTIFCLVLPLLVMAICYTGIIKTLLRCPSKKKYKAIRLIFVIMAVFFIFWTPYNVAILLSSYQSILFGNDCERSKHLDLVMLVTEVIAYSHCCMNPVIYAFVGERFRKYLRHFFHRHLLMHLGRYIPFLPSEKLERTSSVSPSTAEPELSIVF
Procedure: Compounds 93-162 used in this assay were synthesized by using the method described in Example 6, and Compounds 168-170 were synthesized by using the method described in Example 6 except for the use of isothiocyanates instead of isocyanates in step 6.
CCR-3 transfectant cells (CCR3/HEK293) were isolated and resuspended with assay buffer (20 mM HEPES, 125 mM NaCl, 5 mM KCl, 0.5 mM glucose, 1 mM CaCl2, 1 mM MgCl2, 0.1% BSA). After washing CCR3/HEK293 cells with assay buffer, cells were loaded with Fura-2/AM in assay buffer for 1 hour at room temperature. Cells were washed and resuspended with assay buffer at 5×10^6 cells/ml in assay buffer, and placed in a tissue culture plate (Falcon, no. 3296). Test compounds dissolved in DMSO were added to the wells, followed by eotaxin (10 nM at final concentration). Cells were excited at 340 nm and 380 nm in a fluorimeter (ARGUS50,FDSS2000, Hamamatsu Photonics) and the relative ratio of the fluorescence emitted at 510 nm was recorded. For a control, DMSO without a test compound was added. Intracellular calcium mobilization was calculated as described in Krogel C. et al., FEBS Let. (1989) 243, 41-46.

[2] = test system: bronchoconstriction provoked by acetylcholine; experiment: Airway hyperreactivity: bronchoconstriction provoked by acetylcholine (murine asthma model); assay type: in vivo; conditions: OVA-immunized male BALB/c mice, intraperitoneally for 9 days, FIG. 2A
Procedure: (§1) Male BALB/c mice were immunized by an intraperitoneal injection of 10 μg OVA adsorbed to 1 mg aluminum hydroxide gel (alum). A booster injection of the same dose of alum-adsorbed OVA was given 5 days later. Unimmunized control mice received saline.
(§2) Twelve days after primary immunization, both the immunized and unimmunized mice were exposed to aerosolized antigen. Aerosolization of OVA was performed using a nose-only aerosol chamber adapted for mice. Animals were exposed for 10 minutes to 5 mg/ml OVA aerosolized by an ultrasonic nebulizer (NE-U12, Omron, Tokyo, Japan) driven by a vacuum pump. The antigen bronchoprovocation was repeated on day 16 and day 20 under the same conditions. Compound No. 298 (CPD No. 298) was dissolved in saline containing 2% DMSO and 2% Cremophore and administered intraperitoneally for 9 days, starting on the first day of antigen inhalation.
Twenty-four hours after the final aerosol exposure, bronchoconstriction was measured by the overflow method of Konzett and Rōssler. […] Bronchoconstriction was recorded on a flatbed recorder (Model FBR-252A, TOA Electronics Ltd., Tokyo, Japan). […]

[3] = test system: eosinophil infiltration to BALF; experiment: Eosinophil infiltration to bronchoalveolar lavage fluid (BALF) in OVA-immunized mice; assay type: in vivo; conditions: OVA-immunized male BALB/c mice, intraperitoneally for 9 days, FIG. 2C
Procedure: as §1, §2
Immediately after the measurement of airway reactivity to acethycholine, BALF was collected by lavaging whole-lung three times with 0.7-ml aliquots of physiological saline containing 0.1% BSA via the tracheal cannula while gently massaging the thorax. The BALF recovered from one mouse was pooled, centrifuged, and the cells were resuspended in 100 μl saline containing 0.1% BSA. Cell numbers were determined using a hemocytometer and 2×10^4 cells were cytecetrifuged onto a glass slide. […]

Row | SMILES | clinical score of collagen-induced arthritis [1] | Ca^2+ mobilization 6.25 μg/ml (inhibition %) (CCR-3) | bronchoconstriction provoked by acetylcholine [2] | eosinophil infiltration to bronchoalveolar lavage fluid (BALF) [3]
1 | O=C(O)CCCN(CCCNC(=O)Nc1ccc(Br)cc1)C1CCCc2ccccc21 (stereo not shown) [Compound 60, 4-[[3-(4-Bromophenylureido)propyl](1,2,3,4-tetrahydro-1-naphthyl)amino]butanoic acid] | marked prevention in clinical score |  |  | 
2 | COc1ccc(NC(=S)NCCCN(CCCC(=O)O)C2CCCc3ccccc32)cc1 (stereo not shown) [Compound 168] |  | 23% |  | 
3 | O=C(O)CCCN(CCCNC(=S)Nc1ccc(OCc2ccccc2)cc1)C1CCCc2ccccc21 (stereo not shown) [Compound 169] |  | 48% |  | 
4 | O=C(O)CCCN(CCCNC(=S)Nc1ccc(OC(F)(F)F)cc1)C1CCCc2ccccc21 (stereo not shown) [Compound 170] |  | 45% |  | 
5 | CC[N+](CCCNC(=O)Nc1ccccc1)(CCc1ccc(Cl)cc1)Cc1ccc(Cl)cc1.[I-] (stereo not shown) [Compound 298, [3-(Phenylureido)propyl][2(4-chlorophenyl)ethyl](4 chlorobenzyl)ethylammonium iodide] | marked prevention in clinical score |  | Inhibition of bronchoconstriction | significantly suppressed eosinophil infiltration
